Test results reported in US8129399B2, “Aminopyrimidines useful as kinase inhibitors” (Vertex Pharmaceuticals Incorporated, priority 2005, dated 2012).
Read-outs that look alike come from different tables or passages of the source.

What was measured:
[1] = molecular target: Aurora-1 (Aurora B) (Homo sapiens, UniProt Q96GD4); assay: Aurora-1 (Aurora B) inhibition assay (radiometric); assay type: biochemical; details: 800 μM ATP; read-out: Aurora B Ki
Protocol: An assay buffer solution was prepared which consisted of 25 mM HEPES (pH 7.5), 10 mM MgCl2, 0.1% BSA and 10% glycerol. […] To 22 μL of the Aurora-B solution, in a 96-well plate, was added 2 μl of a compound stock solution in DMSO and the mixture allowed to equilibrate for 10 minutes at 25° C. The enzyme reaction was initiated by the addition of 16 μl stock [γ-^33P]-ATP solution (˜20 nCi/μL) prepared in assay buffer, to a final assay concentration of 800 μM. The reaction was stopped after 3 hours by the addition of 16 μL 500 mM phosphoric acid and the levels of ^33P incorporation into the peptide substrate were determined by the following method.
A phosphocellulose 96-well plate (Millipore, Cat no. MAPHNOB50) was pre-treated with 100 μL of a 100 mM phosphoric acid prior to the addition of the enzyme reaction mixture (40 μL). The solution was left to soak on to the phosphocellulose membrane for 30 minutes and the plate subsequently washed four times with 200 μL of a 100 mM phosphoric acid. […] Levels of non-enzyme catalyzed background radioactivity were determined by adding 16 μL of the 500 mM phosphoric acid to control wells, containing all assay components (which acts to denature the enzyme), prior to the addition of the [γ-^33P]-ATP solution. Levels of enzyme catalyzed ^33P incorporation were calculated by subtracting mean background counts from those measured at each inhibitor concentration. […] Ki values were calculated from initial rate data by non-linear regression using the Prism software package (Prism 3.0, Graphpad Software, San Diego, Calif.).

[2] = system: Colo205 cells; assay: Colo205 cell proliferation, 3H thymidine incorporation; assay type: cell-based; details: Homo sapiens
Protocol: Colo205 cells were seeded in 96 well plates and serially diluted compound was added to the wells in duplicate. Control groups included untreated cells, the compound diluent (0.1% DMSO alone) and culture medium without cells.
To measure proliferation, 3 h prior to the end of the experiment 0.5 μCi of 3H thymidine was added to each well. Cells were then harvested and the incorporated radioactivity counted on a Wallac microplate beta-counter. Cell viability was assessed using Promega CellTiter 96AQ to measure MTS conversion. Dose response curves were calculated using either Prism 3.0 (GraphPad) or SoftMax Pro 4.3.1 LS (Molecular Devices) software.

[3] = molecular target: T1, Aurora-2 (Aurora A) (Homo sapiens, UniProt O14965); assay: Aurora-2 (Aurora A) inhibition assay, coupled enzyme; assay type: biochemical
T1 sequence (O14965 1-403): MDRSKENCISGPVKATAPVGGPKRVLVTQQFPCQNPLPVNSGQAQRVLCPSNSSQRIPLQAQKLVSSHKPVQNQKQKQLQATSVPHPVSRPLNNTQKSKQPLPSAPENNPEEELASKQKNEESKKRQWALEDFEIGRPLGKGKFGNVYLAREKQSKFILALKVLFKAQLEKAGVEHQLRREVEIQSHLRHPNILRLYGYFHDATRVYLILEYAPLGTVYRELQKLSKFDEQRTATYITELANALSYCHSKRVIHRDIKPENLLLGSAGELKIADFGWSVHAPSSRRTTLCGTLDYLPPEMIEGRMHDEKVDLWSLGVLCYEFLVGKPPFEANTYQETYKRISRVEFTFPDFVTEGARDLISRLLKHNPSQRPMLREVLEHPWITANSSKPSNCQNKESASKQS
Protocol: Assays were carried out in a mixture of 100 mM Hepes (pH7.5), 10 mM MgCl2, 1 mM DTT, 25 mM NaCl, 2.5 mM phosphoenolpyruvate, 300 μM NADH, 30 μg/ml pyruvate kinase and 10 μg/ml lactate dehydrogenase. […] Assays were carried out at 30° C. and in the presence of 40 nM Aurora-2.
An assay stock buffer solution was prepared containing all of the reagents listed above, with the exception of Aurora-2 and the test compound of interest. […] The plate was preincubated for 10 minutes at 30° C. and the reaction initiated by addition of 10 μl of Aurora-2. Initial reaction rates were determined with a Molecular Devices SpectraMax Plus plate reader over a 10 minute time course. IC50 and Ki data were calculated from non-linear regression analysis using the Prism software package (GraphPad Prism version 3.0cx for Macintosh, GraphPad Software, San Diego Calif., USA).

[4] = molecular target: N-terminally truncated (Δ 27) Abl kinase (Homo sapiens, UniProt P00519); assay: Abl kinase activity inhibition assay, coupled enzyme; assay type: biochemical
Protocol: Reactions were carried out in a solution containing 100 mM HEPES (pH 7.5), 10 mM MgCl2, 25 mM NaCl, 300 μM NADH, 1 mM DTT and 3% DMSO. […] Final concentrations of the components of the coupled enzyme system were 2.5 mM phosphoenolpyruvate, 200 μM NADH, 60 μg/ml pyruvate kinase and 20 μg/ml lactate dehydrogenase.
An assay stock buffer solution was prepared containing all of the reagents listed above with the exception of ATP and the test compound of interest. […] Rates of reaction were obtained using a Molecular Devices Spectramax plate reader (Sunnyvale, Calif.) over 10 min at 30° C. The Ki values were determined from the residual rate data as a function of inhibitor concentration using nonlinear regression (Prism 3.0, Graphpad Software, San Diego, Calif.).

[5] = molecular target: Arg (Abl-2) (Homo sapiens, UniProt P42684); assay: Arg (Abl-2) inhibition screen; assay type: biochemical; details: Table 5; ATP at or close to Km
Text: (§1) Compound(s) were screened for their ability to inhibit Arg (Abl-2), FGFR1, MLK1, Tie2, and TrkA using screening methods known to one of ordinary skill in the art. All of the above enzymes were screened with ATP concentrations at or close to the Km for ATP.

[6] = molecular target: FGFR1 (Homo sapiens, UniProt P11362); assay: FGFR1 inhibition screen; assay type: biochemical; details: Table 5; ATP at or close to Km
Text: as §1

[7] = COLO 205, read-out: Colo205 inh 3H-Thy incorporation after 96 hours IC50 (uM)
[8] = 400 μM ATP, 40 nM Aurora-2, read-out: Aurora A Ki
[9] = COLO 205, read-out: Colo205 inh 3H-Thy incorporation after 72 hours IC50 (uM)

Sequence of N-terminally truncated (Δ 27) Abl kinase (P00519 28-1130 limits assumed, stated change not applied): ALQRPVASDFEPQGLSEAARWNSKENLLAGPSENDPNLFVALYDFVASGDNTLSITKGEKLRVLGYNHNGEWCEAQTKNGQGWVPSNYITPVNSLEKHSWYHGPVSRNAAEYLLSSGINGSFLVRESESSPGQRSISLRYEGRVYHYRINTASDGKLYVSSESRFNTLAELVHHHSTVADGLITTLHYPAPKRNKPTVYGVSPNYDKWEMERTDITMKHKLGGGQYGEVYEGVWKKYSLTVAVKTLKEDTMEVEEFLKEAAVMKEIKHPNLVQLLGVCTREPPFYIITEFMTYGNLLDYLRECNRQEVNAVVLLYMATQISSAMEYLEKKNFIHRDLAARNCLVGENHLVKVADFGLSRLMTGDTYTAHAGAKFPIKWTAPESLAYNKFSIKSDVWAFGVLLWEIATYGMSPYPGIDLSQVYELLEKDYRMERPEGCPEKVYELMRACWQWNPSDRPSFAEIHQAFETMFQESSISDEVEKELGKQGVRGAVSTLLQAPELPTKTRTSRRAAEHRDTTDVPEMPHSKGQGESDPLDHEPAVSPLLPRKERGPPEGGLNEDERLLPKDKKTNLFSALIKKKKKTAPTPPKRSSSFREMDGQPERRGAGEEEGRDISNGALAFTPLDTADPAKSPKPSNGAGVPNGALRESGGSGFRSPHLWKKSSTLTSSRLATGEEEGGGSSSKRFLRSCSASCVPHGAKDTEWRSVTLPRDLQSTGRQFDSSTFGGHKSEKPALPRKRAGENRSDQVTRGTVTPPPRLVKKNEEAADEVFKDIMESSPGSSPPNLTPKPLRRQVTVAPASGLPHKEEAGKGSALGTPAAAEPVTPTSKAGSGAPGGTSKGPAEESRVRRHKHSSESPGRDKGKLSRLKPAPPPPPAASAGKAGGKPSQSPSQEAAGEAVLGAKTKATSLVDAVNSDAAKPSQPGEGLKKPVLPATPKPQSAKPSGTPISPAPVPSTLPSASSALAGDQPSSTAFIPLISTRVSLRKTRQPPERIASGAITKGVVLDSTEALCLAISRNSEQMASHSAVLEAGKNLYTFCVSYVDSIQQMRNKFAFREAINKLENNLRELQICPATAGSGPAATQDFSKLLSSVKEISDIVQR
Sequence of Aurora-1 (Aurora B) (Q96GD4 whole entry): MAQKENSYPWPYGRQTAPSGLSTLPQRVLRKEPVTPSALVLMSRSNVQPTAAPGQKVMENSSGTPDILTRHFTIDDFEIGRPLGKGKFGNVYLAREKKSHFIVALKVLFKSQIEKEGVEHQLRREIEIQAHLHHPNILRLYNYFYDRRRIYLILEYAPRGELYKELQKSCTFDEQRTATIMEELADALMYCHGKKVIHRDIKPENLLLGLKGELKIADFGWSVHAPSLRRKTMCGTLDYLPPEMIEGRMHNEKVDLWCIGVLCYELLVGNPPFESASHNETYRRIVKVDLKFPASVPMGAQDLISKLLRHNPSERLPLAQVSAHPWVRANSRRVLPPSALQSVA
Sequence of FGFR1 (P11362 22-822, species assumed): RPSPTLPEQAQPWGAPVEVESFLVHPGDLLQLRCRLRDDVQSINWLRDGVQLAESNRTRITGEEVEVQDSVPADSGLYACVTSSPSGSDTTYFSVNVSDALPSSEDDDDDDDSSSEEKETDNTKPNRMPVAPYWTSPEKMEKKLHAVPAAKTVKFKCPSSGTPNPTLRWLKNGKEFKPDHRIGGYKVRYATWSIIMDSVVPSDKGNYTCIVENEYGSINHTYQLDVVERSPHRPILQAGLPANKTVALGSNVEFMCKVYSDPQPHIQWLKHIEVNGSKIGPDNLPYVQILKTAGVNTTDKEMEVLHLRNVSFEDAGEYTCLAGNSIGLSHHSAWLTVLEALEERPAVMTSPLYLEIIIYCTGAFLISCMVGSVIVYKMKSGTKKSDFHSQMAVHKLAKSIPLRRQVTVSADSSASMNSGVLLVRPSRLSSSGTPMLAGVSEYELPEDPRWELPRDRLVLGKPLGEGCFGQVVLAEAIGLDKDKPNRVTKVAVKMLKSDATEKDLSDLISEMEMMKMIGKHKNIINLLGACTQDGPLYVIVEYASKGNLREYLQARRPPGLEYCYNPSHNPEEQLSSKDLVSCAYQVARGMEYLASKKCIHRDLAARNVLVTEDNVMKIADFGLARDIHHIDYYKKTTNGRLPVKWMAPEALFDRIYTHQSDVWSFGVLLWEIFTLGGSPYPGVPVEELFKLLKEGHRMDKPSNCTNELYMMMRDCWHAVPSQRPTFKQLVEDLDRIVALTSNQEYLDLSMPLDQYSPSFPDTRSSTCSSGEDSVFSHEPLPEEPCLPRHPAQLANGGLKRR
Sequence of Arg (Abl-2) (P42684 whole entry, species assumed): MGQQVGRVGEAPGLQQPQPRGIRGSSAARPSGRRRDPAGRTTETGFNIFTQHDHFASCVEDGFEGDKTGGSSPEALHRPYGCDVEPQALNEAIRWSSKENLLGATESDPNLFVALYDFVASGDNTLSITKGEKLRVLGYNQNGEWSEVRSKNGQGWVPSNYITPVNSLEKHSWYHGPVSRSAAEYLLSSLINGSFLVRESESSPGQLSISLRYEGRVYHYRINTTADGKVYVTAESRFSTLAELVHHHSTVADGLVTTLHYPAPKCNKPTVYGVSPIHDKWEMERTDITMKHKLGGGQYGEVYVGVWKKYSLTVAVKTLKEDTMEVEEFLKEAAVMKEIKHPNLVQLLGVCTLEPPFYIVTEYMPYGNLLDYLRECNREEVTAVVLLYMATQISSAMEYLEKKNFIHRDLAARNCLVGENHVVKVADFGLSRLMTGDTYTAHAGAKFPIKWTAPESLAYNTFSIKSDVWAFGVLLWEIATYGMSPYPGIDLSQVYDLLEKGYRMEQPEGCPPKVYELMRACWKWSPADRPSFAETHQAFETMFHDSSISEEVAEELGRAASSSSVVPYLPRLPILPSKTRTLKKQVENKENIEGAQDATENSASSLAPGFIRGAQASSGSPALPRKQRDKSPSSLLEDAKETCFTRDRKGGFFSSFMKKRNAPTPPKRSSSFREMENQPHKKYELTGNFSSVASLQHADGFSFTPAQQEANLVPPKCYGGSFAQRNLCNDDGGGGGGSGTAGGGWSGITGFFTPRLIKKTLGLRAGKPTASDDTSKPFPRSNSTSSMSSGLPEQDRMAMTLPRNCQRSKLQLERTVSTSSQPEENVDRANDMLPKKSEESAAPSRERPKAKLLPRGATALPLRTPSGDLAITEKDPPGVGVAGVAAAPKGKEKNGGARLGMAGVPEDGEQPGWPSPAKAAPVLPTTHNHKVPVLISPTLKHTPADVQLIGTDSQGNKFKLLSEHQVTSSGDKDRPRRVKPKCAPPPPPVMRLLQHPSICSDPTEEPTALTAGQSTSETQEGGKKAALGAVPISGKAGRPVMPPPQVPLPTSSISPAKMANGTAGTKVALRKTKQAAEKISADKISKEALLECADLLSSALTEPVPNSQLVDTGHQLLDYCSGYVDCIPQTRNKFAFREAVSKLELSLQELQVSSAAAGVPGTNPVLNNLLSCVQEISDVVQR

IC50 ([2]; COLO 205, Colo205 cells, 96 hours, read-out: Colo205 inh 3H-Thy incorporation after 96 hours IC50) [µM] | SMILES | Ki [1] [nM] | IC50 [2, 7] [µM] | Ki [3] [nM] | Ki [3, 8] [nM] | Ki [4] [nM] | IC50 [2, 9] [µM] | IC50 [5] [nM] | IC50 [6] [nM]
– | CCC(=O)Nc1ccc(Sc2nc(Nc3cc(C)n[nH]3)cc(N3CC(O)(CC(C)(C)C)C3)n2)cc1 [Compound I-1] | 7 | 0.047 | 0.4 | – | – | – | – | –
0.092 | CCC(=O)Nc1ccc(Sc2nc(Nc3cc(C)n[nH]3)cc(N3CC(O)(CC)C3)n2)cc1 [Compound I-4] | 15 | – | – | 1.7 | – | – | – | –
– | Cc1cc(Nc2cc(N3CC(F)(C4CC4)C3)nc(Sc3ccc(NC(=O)C4(C(F)(F)F)CC4)cc3)n2)[nH]n1 [Compound I-15] | 9.6 | – | – | 0.4 | 57 | 0.026 | – | –
– | CCC(=O)Nc1ccc(Sc2nc(Nc3cc(C)[nH]n3)cc(N3CC(F)(C4CC4)C3)n2)cc1 [Compound I-16] | 24 | – | – | 1 | 170 | 0.051 | – | –
– | Cc1cc(Nc2cc(N3CC(F)(C4CC4)C3)nc(Sc3ccc(NC(=O)CCC(F)(F)F)cc3)n2)[nH]n1 [Compound I-17] | 12 | 0.019 | – | 0.62 | 22 | 0.026 | 210 | 88
